Assay results: a compilation of properties of binary mixtures (doi:10.1016/j.molliq.2022.119944)

assay: xn = mol fraction of the nth substance listed; details: 318.15 K; 101.3 kPa; x1 = 0.1

electrical conductivity [S/m] | Structure (SMILES)
1.78 | C=C[n+]1ccn(CCCC)c1.N[C@@H](CO)C(=O)[O-] + O

same assay, conditions: 318.15 K; 101.3 kPa; x1 = 0.3

electrical conductivity [S/m] | Structure (SMILES)
4.38 | C=C[n+]1ccn(CCCC)c1.N[C@@H](Cc1c[nH]cn1)C(=O)[O-] + O
2.44 | C=Cn1cc[n+](CCCC)c1.NCC(=O)[O-] + O
3.29 | C=C[n+]1ccn(CCCC)c1.NCCCC[C@H](N)C(=O)[O-] + O
3.65 | C=C[n+]1ccn(CCCC)c1.N[C@@H](CO)C(=O)[O-] + O

same assay, conditions: 318.15 K; 101.3 kPa; x1 = 0.5

electrical conductivity [S/m] | Structure (SMILES)
4.37 | C=C[n+]1ccn(CCCC)c1.N[C@@H](Cc1c[nH]cn1)C(=O)[O-] + O
3.6 | C=C[n+]1ccn(CCCC)c1.NCCCC[C@H](N)C(=O)[O-] + O
4.05 | C=C[n+]1ccn(CCCC)c1.N[C@@H](CO)C(=O)[O-] + O

same assay, conditions: 318.15 K; 101.3 kPa; x1 = 0.7

electrical conductivity [S/m] | Structure (SMILES)
3.6 | C=C[n+]1ccn(CCCC)c1.N[C@@H](Cc1c[nH]cn1)C(=O)[O-] + O
2.87 | C=Cn1cc[n+](CCCC)c1.NCC(=O)[O-] + O
2.95 | C=C[n+]1ccn(CCCC)c1.NCCCC[C@H](N)C(=O)[O-] + O
3.43 | C=C[n+]1ccn(CCCC)c1.N[C@@H](CO)C(=O)[O-] + O

same assay, conditions: 318.15 K; 101.3 kPa; x1 = 0.9

electrical conductivity [S/m] | Structure (SMILES)
1.27 | C=C[n+]1ccn(CCCC)c1.N[C@@H](Cc1c[nH]cn1)C(=O)[O-] + O
0.89 | C=Cn1cc[n+](CCCC)c1.NCC(=O)[O-] + O
1.45 | C=C[n+]1ccn(CCCC)c1.NCCCC[C@H](N)C(=O)[O-] + O
1.42 | C=C[n+]1ccn(CCCC)c1.N[C@@H](CO)C(=O)[O-] + O

same assay, conditions: 318.15 K; 101.3 kPa; x1 = 1

electrical conductivity [S/m] | Structure (SMILES)
0.162 | C=C[n+]1ccn(CCCC)c1.N[C@@H](Cc1c[nH]cn1)C(=O)[O-] + O
0.018 | C=Cn1cc[n+](CCCC)c1.NCC(=O)[O-] + O
0.195 | C=C[n+]1ccn(CCCC)c1.NCCCC[C@H](N)C(=O)[O-] + O
0.013 | C=C[n+]1ccn(CCCC)c1.N[C@@H](CO)C(=O)[O-] + O

same assay, conditions: 323.15 K; 101.3 kPa; x1 = 0.1

electrical conductivity [S/m] | viscosity [mPa·s] | Structure (SMILES)
3.58 | 1.7 | C=C[n+]1ccn(CCCC)c1.N[C@@H](Cc1c[nH]cn1)C(=O)[O-] + O
1.35 | 6.71 | C=Cn1cc[n+](CCCC)c1.NCC(=O)[O-] + O
2.78 | 1.97 | C=C[n+]1ccn(CCCC)c1.NCCCC[C@H](N)C(=O)[O-] + O
1.9 | 4.84 | C=C[n+]1ccn(CCCC)c1.N[C@@H](CO)C(=O)[O-] + O

same assay, conditions: 323.15 K; 101.3 kPa; x1 = 0.3

electrical conductivity [S/m] | viscosity [mPa·s] | Structure (SMILES)
4.7 | 4.81 | C=C[n+]1ccn(CCCC)c1.N[C@@H](Cc1c[nH]cn1)C(=O)[O-] + O
2.63 | 11.28 | C=Cn1cc[n+](CCCC)c1.NCC(=O)[O-] + O
3.56 | 3.57 | C=C[n+]1ccn(CCCC)c1.NCCCC[C@H](N)C(=O)[O-] + O
3.9 | 8.81 | C=C[n+]1ccn(CCCC)c1.N[C@@H](CO)C(=O)[O-] + O

same assay, conditions: 323.15 K; 101.3 kPa; x1 = 0.5

electrical conductivity [S/m] | viscosity [mPa·s] | Structure (SMILES)
4.58 | 14.68 | C=C[n+]1ccn(CCCC)c1.N[C@@H](Cc1c[nH]cn1)C(=O)[O-] + O
4.09 | 28.63 | C=Cn1cc[n+](CCCC)c1.NCC(=O)[O-] + O
4.46 | 44.4 | C=C[n+]1ccn(CCCC)c1.N[C@@H](CO)C(=O)[O-] + O

same assay, conditions: 323.15 K; 101.3 kPa; x1 = 0.7

electrical conductivity [S/m] | viscosity [mPa·s] | Structure (SMILES)
3.83 | 33.63 | C=C[n+]1ccn(CCCC)c1.N[C@@H](Cc1c[nH]cn1)C(=O)[O-] + O
3.25 | 168 | C=Cn1cc[n+](CCCC)c1.NCC(=O)[O-] + O
3.28 | 42.7 | C=C[n+]1ccn(CCCC)c1.NCCCC[C@H](N)C(=O)[O-] + O
3.82 | 400 | C=C[n+]1ccn(CCCC)c1.N[C@@H](CO)C(=O)[O-] + O

same assay, conditions: 323.15 K; 101.3 kPa; x1 = 0.9

electrical conductivity [S/m] | viscosity [mPa·s] | Structure (SMILES)
1.64 | 930 | C=C[n+]1ccn(CCCC)c1.N[C@@H](Cc1c[nH]cn1)C(=O)[O-] + O
1.2 | 570 | C=Cn1cc[n+](CCCC)c1.NCC(=O)[O-] + O
1.62 | 950 | C=C[n+]1ccn(CCCC)c1.NCCCC[C@H](N)C(=O)[O-] + O
1.69 | 820 | C=C[n+]1ccn(CCCC)c1.N[C@@H](CO)C(=O)[O-] + O

same assay, conditions: 323.15 K; 101.3 kPa; x1 = 1

electrical conductivity [S/m] | viscosity [mPa·s] | Structure (SMILES)
0.021 | 3100 | C=Cn1cc[n+](CCCC)c1.NCC(=O)[O-] + O
0.214 | 1961 | C=C[n+]1ccn(CCCC)c1.NCCCC[C@H](N)C(=O)[O-] + O

same assay, conditions: 333.15 K; 101.3 kPa; x1 = 0.1

viscosity [mPa·s] | Structure (SMILES)
1.46 | C=C[n+]1ccn(CCCC)c1.N[C@@H](Cc1c[nH]cn1)C(=O)[O-] + O
5.87 | C=Cn1cc[n+](CCCC)c1.NCC(=O)[O-] + O
1.58 | C=C[n+]1ccn(CCCC)c1.NCCCC[C@H](N)C(=O)[O-] + O
4.82 | C=C[n+]1ccn(CCCC)c1.N[C@@H](CO)C(=O)[O-] + O

same assay, conditions: 333.15 K; 101.3 kPa; x1 = 0.3

viscosity [mPa·s] | Structure (SMILES)
2.36 | C=C[n+]1ccn(CCCC)c1.NCCCC[C@H](N)C(=O)[O-] + O
7.96 | C=C[n+]1ccn(CCCC)c1.N[C@@H](CO)C(=O)[O-] + O

same assay, conditions: 333.15 K; 101.3 kPa; x1 = 0.5

viscosity [mPa·s] | Structure (SMILES)
14.17 | C=C[n+]1ccn(CCCC)c1.N[C@@H](Cc1c[nH]cn1)C(=O)[O-] + O
28.1 | C=Cn1cc[n+](CCCC)c1.NCC(=O)[O-] + O
36.92 | C=C[n+]1ccn(CCCC)c1.NCCCC[C@H](N)C(=O)[O-] + O

same assay, conditions: 333.15 K; 101.3 kPa; x1 = 0.7

viscosity [mPa·s] | Structure (SMILES)
29.24 | C=C[n+]1ccn(CCCC)c1.N[C@@H](Cc1c[nH]cn1)C(=O)[O-] + O
156 | C=Cn1cc[n+](CCCC)c1.NCC(=O)[O-] + O
36.62 | C=C[n+]1ccn(CCCC)c1.NCCCC[C@H](N)C(=O)[O-] + O
396 | C=C[n+]1ccn(CCCC)c1.N[C@@H](CO)C(=O)[O-] + O

same assay, conditions: 333.15 K; 101.3 kPa; x1 = 0.9

viscosity [mPa·s] | Structure (SMILES)
550 | C=C[n+]1ccn(CCCC)c1.N[C@@H](Cc1c[nH]cn1)C(=O)[O-] + O
540 | C=Cn1cc[n+](CCCC)c1.NCC(=O)[O-] + O
670 | C=C[n+]1ccn(CCCC)c1.N[C@@H](CO)C(=O)[O-] + O

same assay, conditions: 333.15 K; 101.3 kPa; x1 = 1

viscosity [mPa·s] | Structure (SMILES)
810 | C=C[n+]1ccn(CCCC)c1.N[C@@H](Cc1c[nH]cn1)C(=O)[O-] + O
1174 | C=C[n+]1ccn(CCCC)c1.NCCCC[C@H](N)C(=O)[O-] + O
2800 | C=C[n+]1ccn(CCCC)c1.N[C@@H](CO)C(=O)[O-] + O

same assay, conditions: 343.15 K; 101.3 kPa; x1 = 0.1

viscosity [mPa·s] | Structure (SMILES)
1.04 | C=C[n+]1ccn(CCCC)c1.N[C@@H](Cc1c[nH]cn1)C(=O)[O-] + O
5.29 | C=Cn1cc[n+](CCCC)c1.NCC(=O)[O-] + O
4.57 | C=C[n+]1ccn(CCCC)c1.N[C@@H](CO)C(=O)[O-] + O

same assay, conditions: 343.15 K; 101.3 kPa; x1 = 0.3

viscosity [mPa·s] | Structure (SMILES)
4 | C=C[n+]1ccn(CCCC)c1.N[C@@H](Cc1c[nH]cn1)C(=O)[O-] + O
2.2 | C=C[n+]1ccn(CCCC)c1.NCCCC[C@H](N)C(=O)[O-] + O
7.27 | C=C[n+]1ccn(CCCC)c1.N[C@@H](CO)C(=O)[O-] + O

same assay, conditions: 343.15 K; 101.3 kPa; x1 = 0.5

viscosity [mPa·s] | Structure (SMILES)
13.4 | C=C[n+]1ccn(CCCC)c1.N[C@@H](Cc1c[nH]cn1)C(=O)[O-] + O
22.04 | C=Cn1cc[n+](CCCC)c1.NCC(=O)[O-] + O
37.75 | C=C[n+]1ccn(CCCC)c1.N[C@@H](CO)C(=O)[O-] + O

same assay, conditions: 343.15 K; 101.3 kPa; x1 = 0.7

viscosity [mPa·s] | Structure (SMILES)
132 | C=Cn1cc[n+](CCCC)c1.NCC(=O)[O-] + O
33.98 | C=C[n+]1ccn(CCCC)c1.NCCCC[C@H](N)C(=O)[O-] + O
387 | C=C[n+]1ccn(CCCC)c1.N[C@@H](CO)C(=O)[O-] + O

same assay, conditions: 343.15 K; 101.3 kPa; x1 = 0.9

viscosity [mPa·s] | Structure (SMILES)
327 | C=C[n+]1ccn(CCCC)c1.N[C@@H](Cc1c[nH]cn1)C(=O)[O-] + O
540 | C=Cn1cc[n+](CCCC)c1.NCC(=O)[O-] + O
610 | C=C[n+]1ccn(CCCC)c1.N[C@@H](CO)C(=O)[O-] + O

same assay, conditions: 343.15 K; 101.3 kPa; x1 = 1

viscosity [mPa·s] | Structure (SMILES)
500 | C=C[n+]1ccn(CCCC)c1.N[C@@H](Cc1c[nH]cn1)C(=O)[O-] + O
780 | C=C[n+]1ccn(CCCC)c1.NCCCC[C@H](N)C(=O)[O-] + O

same assay, conditions: 353.15 K; 101.3 kPa; x1 = 0.1

viscosity [mPa·s] | Structure (SMILES)
0.95 | C=C[n+]1ccn(CCCC)c1.N[C@@H](Cc1c[nH]cn1)C(=O)[O-] + O
5.08 | C=Cn1cc[n+](CCCC)c1.NCC(=O)[O-] + O

same assay, conditions: 353.15 K; 101.3 kPa; x1 = 0.3

viscosity [mPa·s] | Structure (SMILES)
3.68 | C=C[n+]1ccn(CCCC)c1.N[C@@H](Cc1c[nH]cn1)C(=O)[O-] + O
9.83 | C=Cn1cc[n+](CCCC)c1.NCC(=O)[O-] + O
7.11 | C=C[n+]1ccn(CCCC)c1.N[C@@H](CO)C(=O)[O-] + O

same assay, conditions: 353.15 K; 101.3 kPa; x1 = 0.5

viscosity [mPa·s] | Structure (SMILES)
36.44 | C=C[n+]1ccn(CCCC)c1.NCCCC[C@H](N)C(=O)[O-] + O

same assay, conditions: 353.15 K; 101.3 kPa; x1 = 0.7

viscosity [mPa·s] | Structure (SMILES)
29 | C=C[n+]1ccn(CCCC)c1.N[C@@H](Cc1c[nH]cn1)C(=O)[O-] + O
104.8 | C=Cn1cc[n+](CCCC)c1.NCC(=O)[O-] + O
33.87 | C=C[n+]1ccn(CCCC)c1.NCCCC[C@H](N)C(=O)[O-] + O
385 | C=C[n+]1ccn(CCCC)c1.N[C@@H](CO)C(=O)[O-] + O

same assay, conditions: 353.15 K; 101.3 kPa; x1 = 0.9

viscosity [mPa·s] | Structure (SMILES)
116 | C=C[n+]1ccn(CCCC)c1.N[C@@H](Cc1c[nH]cn1)C(=O)[O-] + O
185 | C=C[n+]1ccn(CCCC)c1.NCCCC[C@H](N)C(=O)[O-] + O
540 | C=C[n+]1ccn(CCCC)c1.N[C@@H](CO)C(=O)[O-] + O

same assay, conditions: 353.15 K; 101.3 kPa; x1 = 1

viscosity [mPa·s] | Structure (SMILES)
331 | C=C[n+]1ccn(CCCC)c1.N[C@@H](Cc1c[nH]cn1)C(=O)[O-] + O
560 | C=C[n+]1ccn(CCCC)c1.NCCCC[C@H](N)C(=O)[O-] + O
